The molecules below were run against Sodium-dependent serotonin transporter (Rattus norvegicus, UniProt P31652) (assay: Inhibition of [3H]citalopram binding to Serotonin transporter of rat cerebral cortex).
Sodium-dependent serotonin transporter, sequence (P31652 whole entry): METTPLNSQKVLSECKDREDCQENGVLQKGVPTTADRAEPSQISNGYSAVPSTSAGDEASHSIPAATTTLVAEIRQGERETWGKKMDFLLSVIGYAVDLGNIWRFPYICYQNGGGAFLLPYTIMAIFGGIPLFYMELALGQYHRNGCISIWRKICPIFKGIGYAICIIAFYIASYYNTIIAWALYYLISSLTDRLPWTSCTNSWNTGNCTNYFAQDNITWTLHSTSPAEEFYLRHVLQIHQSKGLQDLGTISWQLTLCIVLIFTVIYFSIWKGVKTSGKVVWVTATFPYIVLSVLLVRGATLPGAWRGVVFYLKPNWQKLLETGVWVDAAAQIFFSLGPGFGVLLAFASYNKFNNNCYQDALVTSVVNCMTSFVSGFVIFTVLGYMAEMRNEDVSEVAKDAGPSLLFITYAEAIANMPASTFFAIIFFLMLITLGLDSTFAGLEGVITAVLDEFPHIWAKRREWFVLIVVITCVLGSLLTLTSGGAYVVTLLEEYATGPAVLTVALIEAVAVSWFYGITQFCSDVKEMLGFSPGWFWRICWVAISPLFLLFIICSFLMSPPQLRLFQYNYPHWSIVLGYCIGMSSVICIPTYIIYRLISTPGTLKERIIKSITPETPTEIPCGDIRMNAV
Type: tissue-based
`O=[N+]([O-])c1cc([N+](=O)[O-])c2nc(N3CCNCC3)ccc2c1` showed a Ki of 313 nM. For `NCCNc1ccc2cc([N+](=O)[O-])ccc2n1`, the Ki was 164 nM. `c1ccc2nc(N3CCNCC3)ccc2c1` [QUIPAZINE] gave a Ki of 63 nM.

Source: ChEMBL document CHEMBL1133231, “Syntheses and binding affinities of 6-nitroquipazine analogues for serotonin transporter. Part 1” (Bioorg Med Chem Lett, 2000)
